In publication PMC9732253, “Inhibition of the Phosphatidylinositol-3 Kinase Pathway Using Bimiralisib in Loss-of-Function NOTCH1-Mutant Head and Neck Cancer” (The Oncologist, 2022):

Procedure: All patients received 140 mg bimiralisib (PQR309) orally once daily on 2 consecutive days followed by 5 days without treatment weekly until unacceptable toxicity, tumor progression, patient request for withdrawal, investigator judgment, or death.
Radiologic tumor assessments were performed using computed tomography at baseline and every 6 weeks. Safety was continuously monitored.

Nc1cc(C(F)(F)F)c(-c2nc(N3CCOCC3)nc(N3CCOCC3)n2)cn1 [Bimiralisib, 5-(4,6-dimorpholino-1,3,5-triazin-2-yl)-4-(trifluoromethyl)pyridin-2-amine]
1: Skin infection, Grade 2, total number of events (human, in vivo) | Wound infection, Grade 2, total number of events (human, in vivo) | Acute respiratory distress syndrome, Grade 3/4, total number of events (n = 8) | Alanine aminotransferase increased, Grade 3/4, total number of events (n = 8) | Anemia, Grade 3/4, total number of events (n = 8) | Aspartate aminotransferase increased, Grade 3/4, total number of events (n = 8) | Asthenia, Grade 1, total number of events (n = 8) | Blood and lymphatic system disorders, Grade 3/4, total number of events (n = 8) | Blood creatinine increased, Grade 1, total number of events (n = 8) | Blood glucose increased, Grade 1, total number of events (n = 8) | Cellulitis, Grade 2, total number of events (n = 8) | Chest pain, Grade 1, total number of events (n = 8) | Cough, Grade 1, total number of events (n = 8) | Decreased appetite, Grade 2, total number of events (n = 8) | Dehydration, Grade 2, total number of events (n = 8) | Diarrhea, Grade 2, total number of events (n = 8) | Disease progression, Grade 3/4, total number of events (n = 8) | Dry skin, Grade 1, total number of events (n = 8) | Dysarthria, Grade 1, total number of events (n = 8) | Ear pain, Grade 1, total number of events (n = 8) | Eye disorder, Grade 1, total number of events (n = 8) | Eye disorders, Grade 1, total number of events (n = 8) | Fatigue, Grade 2, total number of events (n = 8) | Gait disturbance, Grade 1, total number of events (n = 8) | Gastroesophageal reflux disease, Grade 1, total number of events (n = 8)
87.5%: Patients with AEs (any severity) suspected to be related to treatment (7 patients of 8)
25.0%: Aspiration pneumonia, AEs irrespective of causality (any grade, 2 patients of 8) | Confusional state, AEs irrespective of causality (any grade, 2 patients of 8) | Rash, AEs irrespective of causality (any grade, 2 patients of 8) | Vomiting, AEs irrespective of causality (any grade, 2 patients of 8)
2: Confusional state, Grade 1, total number of events (n = 8) | Ear and labyrinth disorders, Grade 1, total number of events (n = 8) | Fatigue, Grade 1, total number of events (n = 8) | Gastrointestinal disorders, Grade 1, total number of events (n = 8)
0 n (%): Infections and infestations, Grade 1, patients (human, in vivo) | Sepsis, Grade 1, patients (human, in vivo) | Sepsis, Grade 2, patients (human, in vivo) | Skin infection, Grade 1, patients (human, in vivo) | Wound infection, Grade 1, patients (human, in vivo) | Wound infection, Grade 3/4, patients (human, in vivo) | Acute respiratory distress syndrome, Grade 1, patients (n = 8) | Acute respiratory distress syndrome, Grade 2, patients (n = 8) | Alanine aminotransferase increased, Grade 1, patients (n = 8) | Alanine aminotransferase increased, Grade 2, patients (n = 8) | Anemia, Grade 1, patients (n = 8) | Anemia, Grade 2, patients (n = 8) | Aspartate aminotransferase increased, Grade 1, patients (n = 8) | Aspartate aminotransferase increased, Grade 2, patients (n = 8) | Asthenia, Grade 2, patients (n = 8) | Asthenia, Grade 3/4, patients (n = 8) | Blood and lymphatic system disorders, Grade 1, patients (n = 8) | Blood and lymphatic system disorders, Grade 2, patients (n = 8) | Blood creatinine increased, Grade 2, patients (n = 8) | Blood creatinine increased, Grade 3/4, patients (n = 8) | Blood glucose increased, Grade 2, patients (n = 8) | Blood glucose increased, Grade 3/4, patients (n = 8) | Cellulitis, Grade 1, patients (n = 8) | Cellulitis, Grade 3/4, patients (n = 8) | Chest pain, Grade 2, patients (n = 8) | Chest pain, Grade 3/4, patients (n = 8) | Confusional state, Grade 2, patients (n = 8) | Confusional state, Grade 3/4, patients (n = 8) | Cough, Grade 2, patients (n = 8) | Cough, Grade 3/4, patients (n = 8) | Decreased appetite, Grade 1, patients (n = 8) | Decreased appetite, Grade 3/4, patients (n = 8) | Dehydration, Grade 1, patients (n = 8) | Dehydration, Grade 3/4, patients (n = 8) | Diarrhea, Grade 1, patients (n = 8) | Diarrhea, Grade 3/4, patients (n = 8) | Disease progression, Grade 1, patients (n = 8) | Disease progression, Grade 2, patients (n = 8) | Dry skin, Grade 2, patients (n = 8) | Dry skin, Grade 3/4, patients (n = 8) | Dysarthria, Grade 2, patients (n = 8) | Dysarthria, Grade 3/4, patients (n = 8) | Ear and labyrinth disorders, Grade 2, patients (n = 8) | Ear and labyrinth disorders, Grade 3/4, patients (n = 8) | Ear pain, Grade 2, patients (n = 8) | Ear pain, Grade 3/4, patients (n = 8) | Eye disorder, Grade 2, patients (n = 8) | Eye disorder, Grade 3/4, patients (n = 8) | Eye disorders, Grade 2, patients (n = 8) | Eye disorders, Grade 3/4, patients (n = 8) | Fatigue, Grade 3/4, patients (n = 8) | Gait disturbance, Grade 2, patients (n = 8) | Gait disturbance, Grade 3/4, patients (n = 8) | Gastroesophageal reflux disease, Grade 2, patients (n = 8) | Gastroesophageal reflux disease, Grade 3/4, patients (n = 8) | Gastrointestinal disorders, Grade 3/4, patients (n = 8)
5 (62.5) n (%): Any adverse event, Grade 3/4, patients (n = 8) | General disorders and administration site conditions, Grade 1, patients (n = 8)
0: Infections and infestations, Grade 1, total number of events (human, in vivo) | Sepsis, Grade 1, total number of events (human, in vivo) | Sepsis, Grade 2, total number of events (human, in vivo) | Skin infection, Grade 1, total number of events (human, in vivo) | Wound infection, Grade 1, total number of events (human, in vivo) | Acute respiratory distress syndrome, Grade 1, total number of events (n = 8) | Acute respiratory distress syndrome, Grade 2, total number of events (n = 8) | Alanine aminotransferase increased, Grade 1, total number of events (n = 8) | Alanine aminotransferase increased, Grade 2, total number of events (n = 8) | Anemia, Grade 1, total number of events (n = 8) | Anemia, Grade 2, total number of events (n = 8) | Aspartate aminotransferase increased, Grade 1, total number of events (n = 8) | Aspartate aminotransferase increased, Grade 2, total number of events (n = 8) | Asthenia, Grade 2, total number of events (n = 8) | Asthenia, Grade 3/4, total number of events (n = 8) | Blood and lymphatic system disorders, Grade 1, total number of events (n = 8) | Blood and lymphatic system disorders, Grade 2, total number of events (n = 8) | Blood creatinine increased, Grade 2, total number of events (n = 8) | Blood creatinine increased, Grade 3/4, total number of events (n = 8) | Blood glucose increased, Grade 2, total number of events (n = 8) | Blood glucose increased, Grade 3/4, total number of events (n = 8) | Cellulitis, Grade 1, total number of events (n = 8) | Cellulitis, Grade 3/4, total number of events (n = 8) | Chest pain, Grade 2, total number of events (n = 8) | Chest pain, Grade 3/4, total number of events (n = 8) | Confusional state, Grade 2, total number of events (n = 8) | Confusional state, Grade 3/4, total number of events (n = 8) | Cough, Grade 2, total number of events (n = 8) | Cough, Grade 3/4, total number of events (n = 8) | Decreased appetite, Grade 1, total number of events (n = 8) | Decreased appetite, Grade 3/4, total number of events (n = 8) | Dehydration, Grade 1, total number of events (n = 8) | Dehydration, Grade 3/4, total number of events (n = 8) | Diarrhea, Grade 1, total number of events (n = 8) | Diarrhea, Grade 3/4, total number of events (n = 8) | Disease progression, Grade 1, total number of events (n = 8) | Disease progression, Grade 2, total number of events (n = 8) | Dry skin, Grade 2, total number of events (n = 8) | Dry skin, Grade 3/4, total number of events (n = 8) | Dysarthria, Grade 2, total number of events (n = 8) | Dysarthria, Grade 3/4, total number of events (n = 8) | Ear and labyrinth disorders, Grade 2, total number of events (n = 8) | Ear and labyrinth disorders, Grade 3/4, total number of events (n = 8) | Ear pain, Grade 2, total number of events (n = 8) | Ear pain, Grade 3/4, total number of events (n = 8) | Eye disorder, Grade 2, total number of events (n = 8) | Eye disorder, Grade 3/4, total number of events (n = 8) | Eye disorders, Grade 2, total number of events (n = 8) | Eye disorders, Grade 3/4, total number of events (n = 8) | Fatigue, Grade 3/4, total number of events (n = 8) | Gait disturbance, Grade 2, total number of events (n = 8) | Gait disturbance, Grade 3/4, total number of events (n = 8) | Gastroesophageal reflux disease, Grade 2, total number of events (n = 8) | Gastroesophageal reflux disease, Grade 3/4, total number of events (n = 8) | Gastrointestinal disorders, Grade 3/4, total number of events (n = 8)
5: Gastrointestinal disorders, Grade 2, total number of events (n = 8)
well tolerated: Tolerability (8 patients, 140 mg orally 2 consecutive days weekly)
No patients: AE leading to dose reduction (8 patients)
62.5%: Patients with severe AEs (SAEs, CTCAE grade ≥3) (five patients of 8)
3 (37.5) n (%): Any adverse event, Grade 2, patients (n = 8) | Gastrointestinal disorders, Grade 2, patients (n = 8)
13: Any adverse event, Grade 2, total number of events (n = 8)
1 (12.5) n (%): Sepsis, Grade 3/4, patients (human, in vivo) | Skin infection, Grade 2, patients (human, in vivo) | Skin infection, Grade 3/4, patients (human, in vivo) | Wound infection, Grade 2, patients (human, in vivo) | Acute respiratory distress syndrome, Grade 3/4, patients (n = 8) | Alanine aminotransferase increased, Grade 3/4, patients (n = 8) | Anemia, Grade 3/4, patients (n = 8) | Aspartate aminotransferase increased, Grade 3/4, patients (n = 8) | Asthenia, Grade 1, patients (n = 8) | Blood and lymphatic system disorders, Grade 3/4, patients (n = 8) | Blood creatinine increased, Grade 1, patients (n = 8) | Blood glucose increased, Grade 1, patients (n = 8) | Cellulitis, Grade 2, patients (n = 8) | Chest pain, Grade 1, patients (n = 8) | Cough, Grade 1, patients (n = 8) | Decreased appetite, Grade 2, patients (n = 8) | Dehydration, Grade 2, patients (n = 8) | Diarrhea, Grade 2, patients (n = 8) | Disease progression, Grade 3/4, patients (n = 8) | Dry skin, Grade 1, patients (n = 8) | Dysarthria, Grade 1, patients (n = 8) | Ear pain, Grade 1, patients (n = 8) | Eye disorder, Grade 1, patients (n = 8) | Eye disorders, Grade 1, patients (n = 8) | Fatigue, Grade 2, patients (n = 8) | Gait disturbance, Grade 1, patients (n = 8) | Gastroesophageal reflux disease, Grade 1, patients (n = 8)
23: Number of AEs (any severity) suspected to be related to treatment (in 7 patients)
25%: Skin infection, AEs irrespective of causality (human, in vivo)
15: Any adverse event, Grade 3/4, total number of events (n = 8)
37.5%: Fatigue, AEs irrespective of causality (any grade, 3 patients of 8) | Hyperglycemia, AEs irrespective of causality (any grade, 3 patients of 8) | Nausea, AEs irrespective of causality (any grade, 3 patients of 8)
Two: Patients who died during the study (both events unrelated to treatment) | SAEs related to treatment with bimiralisib (both hyperglycemia)
8 (100.0) n (%): Any adverse event, Grade 1, patients (n = 8)
2 (25.0) n (%): Infections and infestations, Grade 2, patients (human, in vivo) | Confusional state, Grade 1, patients (n = 8) | Ear and labyrinth disorders, Grade 1, patients (n = 8) | Fatigue, Grade 1, patients (n = 8) | Gastrointestinal disorders, Grade 1, patients (n = 8)
3: Infections and infestations, Grade 2, total number of events (human, in vivo) | Infections and infestations, Grade 3/4, total number of events (human, in vivo)
29: Any adverse event, Grade 1, total number of events (n = 8)
